Test results taken from the kinase profiling compilation of Christmann-Franck et al. (2016).

Columns and labels:
Test in all cases: KINOMEscan competition binding
Details in all cases: compound 10.0 µM
BMPR1B (human) = BMPR1B (human) (UniProt O00238)
BRSK2 (human) = BRSK2 (human) (UniProt Q8IWQ3)
CAMK1G (human) = CAMK1G (human) (UniProt Q96NX5)
CAMK2G (human) = CAMK2G (human) (UniProt Q13555)
CDC42BPA (human) = CDC42BPA (human) (UniProt Q5VT25)
CDK16 (human) = CDK16 (human) (UniProt Q00536)
CDKL1 (human) = CDKL1 (human) (UniProt Q00532)
CDKL5 (human) = CDKL5 (human) (UniProt O76039)
CHEK2 (human) = CHEK2 (human) (UniProt O96017)
CLK2 (human) = CLK2 (human) (UniProt P49760)
CPK1 (P.falciparum) = tested on: CPK1 (P.falciparum)
CSNK1G2 (human) = CSNK1G2 (human) (UniProt P78368)
DDR1 (human) = DDR1 (human) (UniProt Q08345)
HCK (human) = HCK (human) (UniProt P08631)
IGF1R (human) = IGF1R (human) (UniProt P08069)
INSRR (human) = INSRR (human) (UniProt P14616)
LCK (human) = LCK (human) (UniProt P06239)
MAP3K4 (human) = MAP3K4 (human) (UniProt Q9Y6R4)
MAP4K2 (human) = MAP4K2 (human) (UniProt Q12851)
MAP4K4 (human) = MAP4K4 (human) (UniProt O95819)
MAPK1 (human) = MAPK1 (human) (UniProt P28482)
MAPK10 (human) = MAPK10 (human) (UniProt P53779)
MAPK12 (human) = MAPK12 (human) (UniProt P53778)
MAPK3 (human) = MAPK3 (human) (UniProt P27361)
MAPK6 (human) = MAPK6 (human) (UniProt Q16659)
MKNK1 (human) = MKNK1 (human) (UniProt Q9BUB5)
MYO3B (human) = MYO3B (human) (UniProt Q8WXR4)
PDGFRA (human) = PDGFRA (human) (UniProt P16234)
PLK1 (human) = PLK1 (human) (UniProt P53350)
PRKCI (human) = PRKCI (human) (UniProt P41743)
PRKD3 (human) = PRKD3 (human) (UniProt O94806)
[1] = tested on: RET (human), P07949 [V804L]
RPS6KA4 KD2 (human) = RPS6KA4 KD2 (human) (UniProt O75676)
STK35 (human) = STK35 (human) (UniProt Q8TDR2)
STK38L (human) = STK38L (human) (UniProt Q9Y2H1)
STK39 (human) = STK39 (human) (UniProt Q9UEW8)
TAOK3 (human) = TAOK3 (human) (UniProt Q9H2K8)
TEC (human) = TEC (human) (UniProt P42680)
TEK (human) = TEK (human) (UniProt Q02763)
TGFBR2 (human) = TGFBR2 (human) (UniProt P37173)

Chain of MKNK1 (human) (Q9BUB5 whole entry, looked up): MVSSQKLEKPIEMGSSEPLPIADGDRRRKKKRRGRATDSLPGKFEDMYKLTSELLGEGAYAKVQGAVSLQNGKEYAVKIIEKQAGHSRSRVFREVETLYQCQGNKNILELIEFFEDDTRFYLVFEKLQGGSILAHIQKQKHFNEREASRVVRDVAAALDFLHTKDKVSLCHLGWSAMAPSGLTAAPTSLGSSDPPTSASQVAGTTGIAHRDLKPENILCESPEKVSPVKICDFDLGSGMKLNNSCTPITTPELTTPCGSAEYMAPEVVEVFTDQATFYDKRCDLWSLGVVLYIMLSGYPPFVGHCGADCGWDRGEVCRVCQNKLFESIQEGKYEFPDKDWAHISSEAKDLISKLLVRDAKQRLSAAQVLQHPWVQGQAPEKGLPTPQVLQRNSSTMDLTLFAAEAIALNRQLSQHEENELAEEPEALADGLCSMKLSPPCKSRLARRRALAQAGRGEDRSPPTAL
Chain of MAP3K4 (human) (Q9Y6R4 whole entry, looked up): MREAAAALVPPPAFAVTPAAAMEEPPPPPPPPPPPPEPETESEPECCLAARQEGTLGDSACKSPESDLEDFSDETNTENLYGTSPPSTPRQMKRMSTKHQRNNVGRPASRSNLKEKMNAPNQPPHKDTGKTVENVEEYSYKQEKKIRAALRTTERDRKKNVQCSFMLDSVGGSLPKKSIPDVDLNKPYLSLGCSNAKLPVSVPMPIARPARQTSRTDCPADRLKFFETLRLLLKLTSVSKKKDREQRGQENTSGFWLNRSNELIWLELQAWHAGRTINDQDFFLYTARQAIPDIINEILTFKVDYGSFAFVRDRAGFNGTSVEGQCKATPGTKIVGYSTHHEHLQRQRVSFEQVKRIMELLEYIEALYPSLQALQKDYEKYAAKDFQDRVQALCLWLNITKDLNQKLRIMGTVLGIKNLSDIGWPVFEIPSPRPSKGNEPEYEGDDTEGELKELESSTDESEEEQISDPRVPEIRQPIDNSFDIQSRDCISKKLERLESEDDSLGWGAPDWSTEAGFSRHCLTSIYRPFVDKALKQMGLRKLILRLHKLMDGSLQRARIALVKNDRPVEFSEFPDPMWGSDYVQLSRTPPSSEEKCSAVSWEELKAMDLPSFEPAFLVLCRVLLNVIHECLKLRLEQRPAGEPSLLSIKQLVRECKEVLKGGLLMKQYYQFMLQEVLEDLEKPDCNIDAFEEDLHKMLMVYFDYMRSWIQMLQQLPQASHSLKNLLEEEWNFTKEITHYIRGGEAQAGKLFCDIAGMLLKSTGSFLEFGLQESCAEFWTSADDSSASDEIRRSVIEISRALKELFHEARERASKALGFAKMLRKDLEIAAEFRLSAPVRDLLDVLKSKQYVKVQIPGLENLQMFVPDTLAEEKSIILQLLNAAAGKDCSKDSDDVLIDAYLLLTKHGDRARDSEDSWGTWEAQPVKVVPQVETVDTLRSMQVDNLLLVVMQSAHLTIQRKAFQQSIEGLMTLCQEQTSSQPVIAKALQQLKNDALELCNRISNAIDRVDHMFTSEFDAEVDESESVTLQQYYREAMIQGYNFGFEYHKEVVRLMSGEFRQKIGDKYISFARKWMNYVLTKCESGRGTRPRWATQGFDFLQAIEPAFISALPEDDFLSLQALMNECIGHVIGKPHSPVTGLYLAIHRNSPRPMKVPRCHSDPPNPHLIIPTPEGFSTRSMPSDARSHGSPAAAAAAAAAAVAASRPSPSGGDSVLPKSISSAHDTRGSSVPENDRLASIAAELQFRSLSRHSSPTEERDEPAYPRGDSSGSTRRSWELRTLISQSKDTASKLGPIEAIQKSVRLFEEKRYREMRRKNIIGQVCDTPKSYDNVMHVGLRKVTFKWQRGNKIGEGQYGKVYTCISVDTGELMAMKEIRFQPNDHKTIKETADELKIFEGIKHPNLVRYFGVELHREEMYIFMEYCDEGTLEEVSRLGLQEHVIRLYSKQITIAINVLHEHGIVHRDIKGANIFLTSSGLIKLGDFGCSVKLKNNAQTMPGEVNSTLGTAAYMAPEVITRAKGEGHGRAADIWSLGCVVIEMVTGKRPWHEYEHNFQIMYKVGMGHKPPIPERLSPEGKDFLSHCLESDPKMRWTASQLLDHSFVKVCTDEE
Chain of PRKD3 (human) (O94806 whole entry, looked up): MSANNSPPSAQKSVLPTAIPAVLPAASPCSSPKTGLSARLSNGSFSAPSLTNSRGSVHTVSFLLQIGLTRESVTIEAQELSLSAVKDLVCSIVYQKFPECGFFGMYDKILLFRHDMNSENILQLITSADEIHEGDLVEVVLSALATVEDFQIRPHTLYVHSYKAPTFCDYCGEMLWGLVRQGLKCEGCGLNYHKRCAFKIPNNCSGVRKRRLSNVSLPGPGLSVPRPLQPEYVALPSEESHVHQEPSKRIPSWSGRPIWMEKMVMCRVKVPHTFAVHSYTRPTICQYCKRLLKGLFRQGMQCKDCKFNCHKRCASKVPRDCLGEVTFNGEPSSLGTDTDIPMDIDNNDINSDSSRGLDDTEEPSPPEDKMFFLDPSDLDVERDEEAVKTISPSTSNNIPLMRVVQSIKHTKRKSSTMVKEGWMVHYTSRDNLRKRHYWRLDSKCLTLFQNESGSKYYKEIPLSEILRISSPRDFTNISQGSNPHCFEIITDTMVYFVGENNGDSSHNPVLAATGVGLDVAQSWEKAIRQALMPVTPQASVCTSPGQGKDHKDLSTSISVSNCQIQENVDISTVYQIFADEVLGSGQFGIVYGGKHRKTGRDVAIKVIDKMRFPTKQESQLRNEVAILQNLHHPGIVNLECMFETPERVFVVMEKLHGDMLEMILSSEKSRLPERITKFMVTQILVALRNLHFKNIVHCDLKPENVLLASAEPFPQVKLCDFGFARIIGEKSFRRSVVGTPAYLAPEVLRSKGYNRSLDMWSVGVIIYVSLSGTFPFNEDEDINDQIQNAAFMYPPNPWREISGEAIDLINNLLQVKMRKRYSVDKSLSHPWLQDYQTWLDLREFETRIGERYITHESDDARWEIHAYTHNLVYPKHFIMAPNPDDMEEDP
Chain of RPS6KA4 KD2 (human) (O75676 whole entry, looked up): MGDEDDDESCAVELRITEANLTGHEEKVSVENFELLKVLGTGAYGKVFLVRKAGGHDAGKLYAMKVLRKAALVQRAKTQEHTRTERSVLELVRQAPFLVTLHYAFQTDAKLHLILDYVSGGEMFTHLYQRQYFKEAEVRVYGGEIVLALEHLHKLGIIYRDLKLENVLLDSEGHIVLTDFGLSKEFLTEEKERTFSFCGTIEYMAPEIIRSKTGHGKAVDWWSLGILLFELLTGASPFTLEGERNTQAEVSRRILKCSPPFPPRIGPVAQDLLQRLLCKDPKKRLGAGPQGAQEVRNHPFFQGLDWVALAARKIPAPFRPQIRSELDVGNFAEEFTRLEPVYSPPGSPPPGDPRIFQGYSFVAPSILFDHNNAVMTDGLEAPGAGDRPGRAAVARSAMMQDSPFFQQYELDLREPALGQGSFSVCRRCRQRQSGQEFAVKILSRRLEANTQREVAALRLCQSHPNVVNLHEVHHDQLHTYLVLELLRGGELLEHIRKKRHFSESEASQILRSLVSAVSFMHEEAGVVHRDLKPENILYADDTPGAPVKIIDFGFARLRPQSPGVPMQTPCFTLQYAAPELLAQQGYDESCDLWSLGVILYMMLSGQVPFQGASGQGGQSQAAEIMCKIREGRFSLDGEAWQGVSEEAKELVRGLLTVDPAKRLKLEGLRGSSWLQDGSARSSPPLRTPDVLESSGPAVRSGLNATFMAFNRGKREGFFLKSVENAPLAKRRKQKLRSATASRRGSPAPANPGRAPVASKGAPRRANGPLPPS
Chain of CDKL5 (human) (O76039 whole entry, looked up): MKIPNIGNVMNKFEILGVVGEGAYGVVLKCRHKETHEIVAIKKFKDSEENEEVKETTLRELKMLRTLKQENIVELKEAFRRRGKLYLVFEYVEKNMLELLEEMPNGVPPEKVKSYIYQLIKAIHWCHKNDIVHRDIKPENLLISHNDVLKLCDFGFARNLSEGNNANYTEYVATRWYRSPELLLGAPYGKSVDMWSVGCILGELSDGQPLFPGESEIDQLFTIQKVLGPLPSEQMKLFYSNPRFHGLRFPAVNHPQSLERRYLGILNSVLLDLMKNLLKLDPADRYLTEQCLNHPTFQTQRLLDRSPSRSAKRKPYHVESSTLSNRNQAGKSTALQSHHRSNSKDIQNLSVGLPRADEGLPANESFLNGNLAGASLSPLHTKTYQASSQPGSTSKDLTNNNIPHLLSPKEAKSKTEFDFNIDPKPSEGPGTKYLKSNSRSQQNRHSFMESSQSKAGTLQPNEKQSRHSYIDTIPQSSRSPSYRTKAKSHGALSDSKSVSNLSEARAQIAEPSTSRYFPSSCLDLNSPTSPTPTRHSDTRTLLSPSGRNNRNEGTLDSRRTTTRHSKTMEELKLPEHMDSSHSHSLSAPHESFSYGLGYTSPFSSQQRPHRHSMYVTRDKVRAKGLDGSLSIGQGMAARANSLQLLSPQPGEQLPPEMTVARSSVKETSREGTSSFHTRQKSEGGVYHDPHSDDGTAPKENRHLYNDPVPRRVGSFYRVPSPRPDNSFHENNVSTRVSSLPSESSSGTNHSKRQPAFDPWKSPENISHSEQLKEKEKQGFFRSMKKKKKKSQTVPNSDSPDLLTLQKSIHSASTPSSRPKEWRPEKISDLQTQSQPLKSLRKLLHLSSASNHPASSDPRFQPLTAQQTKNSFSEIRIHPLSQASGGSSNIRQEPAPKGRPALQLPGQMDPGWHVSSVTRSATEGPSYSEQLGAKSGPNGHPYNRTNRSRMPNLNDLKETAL
Chain of MAPK12 (human) (P53778 whole entry, looked up): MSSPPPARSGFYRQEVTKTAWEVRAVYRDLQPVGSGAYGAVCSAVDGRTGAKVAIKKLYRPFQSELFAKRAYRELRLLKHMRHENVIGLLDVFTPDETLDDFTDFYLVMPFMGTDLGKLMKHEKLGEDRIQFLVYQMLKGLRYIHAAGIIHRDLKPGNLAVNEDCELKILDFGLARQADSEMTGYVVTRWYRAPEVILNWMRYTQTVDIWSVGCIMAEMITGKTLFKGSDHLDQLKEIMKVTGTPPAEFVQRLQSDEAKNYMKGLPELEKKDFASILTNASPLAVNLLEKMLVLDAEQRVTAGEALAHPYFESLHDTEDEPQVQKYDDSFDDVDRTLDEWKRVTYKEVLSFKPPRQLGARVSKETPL

Row | Structure (SMILES) | kinase still bound, per cent of control (BMPR1B (human)) | kinase still bound, per cent of control (BRSK2 (human)) | kinase still bound, per cent of control (CAMK1G (human)) | kinase still bound, per cent of control (CAMK2G (human)) | kinase still bound, per cent of control (CDC42BPA (human)) | kinase still bound, per cent of control (CDK16 (human)) | kinase still bound, per cent of control (CDKL1 (human)) | kinase still bound, per cent of control (CDKL5 (human)) | kinase still bound, per cent of control (CHEK2 (human)) | kinase still bound, per cent of control (CLK2 (human)) | kinase still bound, per cent of control (CPK1 (P.falciparum)) | kinase still bound, per cent of control (CSNK1G2 (human)) | kinase still bound, per cent of control (DDR1 (human)) | kinase still bound, per cent of control (HCK (human)) | kinase still bound, per cent of control (IGF1R (human)) | kinase still bound, per cent of control (INSRR (human)) | kinase still bound, per cent of control (LCK (human)) | kinase still bound, per cent of control (MAP3K4 (human)) | kinase still bound, per cent of control (MAP4K2 (human)) | kinase still bound, per cent of control (MAP4K4 (human)) | other results
1 | N#Cc1cc(-c2ccnc(Nc3ccc(-n4cnc(-c5cccnc5)n4)cc3)n2)cc(N2CCOCC2)c1 | 28% | 98% | 48% | 32% | 68% | 6.8% | 34% | 7% | 100% | 15% | 48% | 72% | 100% | 100% | 51% | 68% | 48% | 50% | 10% | 24% | kinase still bound, per cent of control (MAPK1 (human)): 100%; kinase still bound, per cent of control (MAPK10 (human)): 0.15%; kinase still bound, per cent of control (MAPK12 (human)): 80%; kinase still bound, per cent of control (MAPK3 (human)): 100%; kinase still bound, per cent of control (MAPK6 (human)): 0.95%; kinase still bound, per cent of control (MKNK1 (human)): 100%; kinase still bound, per cent of control (MYO3B (human)): 100%; kinase still bound, per cent of control (PDGFRA (human)): 1.2%; kinase still bound, per cent of control (PLK1 (human)): 99%; kinase still bound, per cent of control (PRKCI (human)): 88%; kinase still bound, per cent of control (PRKD3 (human)): 100%; kinase still bound, per cent of control [1]: 100%; kinase still bound, per cent of control (RPS6KA4 KD2 (human)): 100%; kinase still bound, per cent of control (STK35 (human)): 48%; kinase still bound, per cent of control (STK38L (human)): 100%; kinase still bound, per cent of control (STK39 (human)): 100%; kinase still bound, per cent of control (TAOK3 (human)): 28%; kinase still bound, per cent of control (TEC (human)): 93%; kinase still bound, per cent of control (TEK (human)): 67%; kinase still bound, per cent of control (TGFBR2 (human)): 100%
2 | CC1=C(C(=O)Nc2cc3cn[nH]c3cc2F)C(c2ccc(C(F)(F)F)cc2)CC(=O)N1 (stereo not given) | 65% | 90% | 81% | 97% | 79% | 100% | 78% | 45% | 78% | 54% | 82% | 100% | 100% | 41% | 98% | 99% | 30% | 97% | 96% | 78% | kinase still bound, per cent of control (MAPK1 (human)): 50%; kinase still bound, per cent of control (MAPK10 (human)): 88%; kinase still bound, per cent of control (MAPK12 (human)): 79%; kinase still bound, per cent of control (MAPK3 (human)): 53%; kinase still bound, per cent of control (MAPK6 (human)): 98%; kinase still bound, per cent of control (MKNK1 (human)): 100%; kinase still bound, per cent of control (MYO3B (human)): 100%; kinase still bound, per cent of control (PDGFRA (human)): 84%; kinase still bound, per cent of control (PLK1 (human)): 96%; kinase still bound, per cent of control (PRKCI (human)): 72%; kinase still bound, per cent of control (PRKD3 (human)): 81%; kinase still bound, per cent of control [1]: 39%; kinase still bound, per cent of control (RPS6KA4 KD2 (human)): 100%; kinase still bound, per cent of control (STK35 (human)): 96%; kinase still bound, per cent of control (STK38L (human)): 12%; kinase still bound, per cent of control (STK39 (human)): 86%; kinase still bound, per cent of control (TAOK3 (human)): 96%; kinase still bound, per cent of control (TEC (human)): 19%; kinase still bound, per cent of control (TEK (human)): 83%; kinase still bound, per cent of control (TGFBR2 (human)): 85%
